# Patent publication US20120016014A1, “BENZOTHIOPHENE CARBOXAMIDE COMPOUNDS, COMPOSITION AND APPLICATIONS THEREOF” (INDIAN INSTITUTE OF SCIENCE, priority 2010, published 2012)
# Where “and” joins values, the source holds several entries; their conditions need not be identical. Equal entries are not always repeated. Where two headings read alike, the source gives them in different places.
# Key:
# [1] = target: T1, purified PfENR (Plasmodium falciparum, UniProt Q9BH77); assay: PfENR inhibition, standard enzyme assay; format: biochemical
# T1 sequence (Q9BH77 22-432): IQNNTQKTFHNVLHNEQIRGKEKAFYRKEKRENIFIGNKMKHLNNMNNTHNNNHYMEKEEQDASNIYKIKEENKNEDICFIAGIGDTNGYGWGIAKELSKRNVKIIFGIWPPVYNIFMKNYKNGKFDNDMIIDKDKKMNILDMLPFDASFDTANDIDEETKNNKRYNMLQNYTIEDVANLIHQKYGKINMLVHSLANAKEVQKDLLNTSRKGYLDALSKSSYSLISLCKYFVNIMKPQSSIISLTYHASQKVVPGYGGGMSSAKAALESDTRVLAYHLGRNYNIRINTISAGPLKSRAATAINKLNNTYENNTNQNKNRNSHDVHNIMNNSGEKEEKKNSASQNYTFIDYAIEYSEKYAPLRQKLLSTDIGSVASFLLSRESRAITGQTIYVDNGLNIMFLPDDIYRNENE
# Method: (§1) PfENR activity was determined using standard assay described earlier.
# [2] = Hot plate latency test (thermal hyperalgesia); format: in vivo, rats; details: for MPE index, hot plate latency assay: 15 mg/kg b. wt. i.p., 30 and 60 min; for Anti-nociceptive response, hot plate latency assay: known NSAIDs; for Analgesic activity compared with Ibuprofen, hot plate: compounds 15 mg/kg b. wt. vs Ibuprofen 50 mg/kg b. wt.
# Method: The animals were housed in an animal house facility of National Institute of Immunology, India, with controlled temperature (22±2° C.) under a 12/12 h light/dark cycle. They had free access to food and water ad libitum. All experiments were conducted according to the guidelines of the international association for the study of pain and approved by the institutional ethical committee for animal research. All in vivo experiments were carried out on inbred male […] rats ( 200-320 g body weight). Same age and equal body weight of animals were used according to experiments. No animals were used for more than one experiment. Most popular non-steroidal anti-inflammatory drugs which are widely use for treatment of chronic and inflammatory pain, such as Ibuprofen, Naproxen, Ketoprofen, Aspirin, Nimesulide, Indomethacine were purchased from Cayman Chemicals, USA and used to evaluate the efficacy of drugs in animal model. These drugs and different derivatives of Benzothiophene were dissolved in minimum volume of Dimethyl sulfoxide (DMSO) and further diluted in Phosphate buffer saline prior to use. […] Withdrawal latency for tail flicking was measured. […] NSAIDs is commonly evaluated by hot plate latency assay whereby animals are exposed to thermal stimulus (54 degree […] time for hind paw licking is measured as behavioural response for pain.
# [3] = tested on: blood-stage P. berghei ANKA; assay: Experimental cerebral malaria in C57BL/6 mice; format: in vivo; details: for Mean Survival Days (Observed for 25 days): 5 mg/kg body weight daily for six days, C57BL/6 mice; for Relative efficacy in the route of administration study: 5 mg/kg body weight, 6 days treatment
# Method: C57BL/6 mice were infected with blood-stage P. berghei ANKA as discussed in the experimental section. After 24 hours of infection mice were treated intravenously with various doses of inhibitors. It was observed that all control mice developed hypothermia by day 2, ataxia and convulsions by day 3 and died by day 6, whereas inhibitor treated groups had considerably higher longevity (11-24 days). Though each group of mice developed hypothermia by day 4, convulsions and ataxia development were delayed in case of treated mice. […] The mice treated with 2.5 mg/kg body weight survived for 18 days. Even at or below 1 mg/kg body weight of inhibitor dose, the mice survived for 11 days, but paralysis and ataxia development occurred on Day 7.
# […]. The mice were treated for 6 days. […]. Chloroquine was used as the control drug. […].
# Therefore, compounds 10 and 11 were also administered at 5 mg/Kg body weight. The compounds were administered through intraperitoneal, peroral, subcutaneous and intravenous routes. Compound 10 and 11 were administered once daily for 6 days. […]. The mean survival days for this treatment group was 16 (FIG. 12c and Table III). […]. Chloroquine was used as the control drug.
# [4] = tested on: Plasmodium falciparum 3D7; assay: In vitro inhibition of P. falciparum 3D7 blood-stage parasites; format: cell-based; details: for Stage of parasite growth arrest / Parasites observed to be dead: 2.5 μM; for Stage of parasite growth arrest: added at ring stage, P. falciparum 3D7; for Parasites observed to be dead: synchronised ring stage culture of P. falciparum 3D7; for IC50: read-out: P. falciparum (IC50 μM)
# Method: Benzothiophene carboxamide derivatives of the present invention were checked for their anti-parasitic activity against 3D7 (chloroquine sensitive strain) in an in vitro culture. […] To find out parasite stage where these compounds act, synchronised ring stage culture of P. falciparum was treated with 2.5 μM concentration of compounds 6 and 7. […] When compounds 6 and 7 were added at the trophozoite stage the cells could not proceed to the schizont stage indicating the growth inhibition occurs at trophozoite stage.
# Synchronised culture of P. falciparum 3D7 was treated with 2.5 μM compound 10 and 11 at the ring stage.
# [5] = Tail flick latency test; details: 15 mg/kg b. wt. vs Ibuprofen 50 mg/kg b. wt., 30 min and 60 min post injection
# Method: Hot plate latency test was performed under red light on the metal surface of hot plate analgesia meter (IITC, Life science, CA). Animals were placed individually on the surface of hot plate maintained at a constant temperature 54±1° C. The anti-nociceptive response was latency recorded from the time when animal was placed on the heated surface until the behavior response show licking of hind paw to avoid thermal nociception. A maximum hot plate latency of 30 sec was used for each animal to prevent paw tissue damage. Base line nociceptive latency was obtained for each animal prior to any drug administration. Thereafter, groups of animals were treated with different concentration of different derivatives of benzothiophene and well known NSAIDs. […] Subsequent nociceptive response latency for each animal was determined at 30 and 60 min after drug administration. […] In continuation of tail flick latency assay, the anti-nociceptive effect of the compounds was monitored. Rats treated as described above were subjected to determination of thermal nociceptive pain. Rats were confined in restrainer and allowed to accommodate. The tail withdrawal test consisted of immersing the posterior 8-10 cm of the tail in hot water bath maintained at 54±1° C. Withdrawal latency for tail flicking was measured. A maximum tail flick latency of 20 sec was permitted to minimize tissue damage.
# [6] = target: T1, purified PfENR; assay: PfENR inhibition kinetics, cofactor potency and progress curve analysis; format: biochemical
# Method: as §1
# The accumulation of product further decreased when compound 6 was preincubated with the enzyme (curve c). On addition of NAD+ to this reaction the rate of product accumulation further decreased (curve d).
# Progress curves for inhibition by varying concentrations of compounds 6 and 7 were examined in detail (FIGS. 16a and 16b). From the progress curve analyses, it was inferred that for each concentration of the inhibitors the initial and the steady state velocity decreased exponentially with time. At higher inhibitor concentration, steady state is reached rapidly with a decrease in steady state velocity (vs). […] Progress curves were analysed using equation 3a from which a series of Kobs values were obtained for each concentration of inhibitor.
# [7] = Mechanical hyperalgesia, Randall-Selitto, carrageenan induced; format: in vivo, rats; details: 15 mg/kg b wt., after 1 hrs, basal level in 5 hrs
# Method: Mechanical hyperalgesia was measured as hind limb withdrawal threshold in response to a mechanical stimulus applied to hind paws of rat using Randall-selitto meter, Randall and Selitto, 1957. To determine the mechanical hyperalgesia, the force was applied with increased pressure at a constant rate until the animal withdrew its limb. The base line nociceptive threshold was measured before induction of hyperalgesia. Moreover, hyperalgesia was induced by carrageenan and then groups of animal were treated with compound 4, compound 6 and compound 8 (15 mg/kg body weight) and Ibuprofen (50 mg/kg body weight). Control group was treated with physiological saline. […] The anti-nociceptive efficacy of the compounds has been evaluated the efficacy with paw withdrawal threshold latency of animals.
# [8] = tested on: liver stage of Plasmodium; details: Singh A. P. et al, IUBMB life 61, 923-928; read-out: IC50, inhibition of liver stage parasite development before invasion; cited from earlier work
# [9] = read-out: Inhibition of PfENR (IC50 μM)
# [10] = Erythrocyte, growth inhibition, red blood cell stages of Plasmodium falciparum 3D7 (chloroquine sensitive)
# [11] = Plasmodium falciparum, 3D7, Erythrocyte
smiles,measurement,setting,value
"C=CCN(Cc1ccc(F)cc1)C(=O)c1sc2ccccc2c1Br [Compound 10, 3-bromo-N-(4-fluorobenzyl)-N-(prop-2-en-1-yl)-benzo[b]thiophene-2-carboxamide]",IC50,[1]; [9],51.98 ± 0.43 µM
same,"MPE index, hot plate latency assay",[2],less latency in comparison to other derivatives
same,Mean Survival Days (Observed for 25 days),[3]; Intraperitoneal,11 ± 0.8 days
same,Mean Survival Days (Observed for 25 days),"[3]; Intravenous, 5 mg/kg",15 days and 15 ± 0.7 days
same,Mean Survival Days (Observed for 25 days),[3]; Per oral,7 ± 1.2 days
same,Mean Survival Days (Observed for 25 days),[3]; Subcutaneous,12 ± 1.6 days
same,Stage of parasite growth arrest,[4],arrested after 48 hours at the trophozoite stage
same,Parasites observed to be dead,[4],40%
same,IC50,[4]; [10],2.93 ± 1.2 µM
"O=C(NCc1cccc2ccccc12)c1sc2ccccc2c1Br [Compound 9, 3-bromo-N-(naphthalen-1-ylmethyl)-benzo[b]thiophene-2-carboxamide]",IC50,[1]; [9],52.56 ± 0.33 µM
same,"Anti-nociceptive response, tail flick latency assay",[5],better anti-nociceptive response than the Ibuprofen
same,IC50,[4]; [10],2.45 ± 0.9 µM
"COc1ccc(CNC(=O)c2sc3ccccc3c2Br)cc1 [Compound 5, N-(4-methoxybezyl)-3-bromobenzo[b]thiophene-2-carboxamide]",IC50,[1]; [9],31.99 ± 0.23 µM
same,IC50,[4]; [10],5.93 ± 0.3 µM
"CC(C)Cc1ccc(C(C)C(=O)O)cc1 (centres unmarked) [Ibuprofen, reference compound]","Anti-nociceptive response, hot plate latency assay","[2]; 50 mg/kg b. wt., 60 minutes post administration",better anti-nociceptive effect compared to other NSAIDs
same,"Anti-nociceptive response, hot plate latency assay","[2]; 30 minutes post administration, wistar rats",better anti-nociceptive drug as compared to other NSAIDs
"O=C(NCc1ccc(C(F)(F)F)cc1)c1sc2ccccc2c1Br [Compound 7, N-(4-trifluorobenzyl)-3-bromobenzo[b]thiophene-2-carboxamide]",IC50,[1]; Inhibition of PfENR (IC50 μM),0.463 ± 0.1 µM
same,Relative efficacy in the route of administration study,[3],comparative activity to compound 6
same,Mean Survival Days (Observed for 25 days),[3]; Intraperitoneal,21 ± 1.3 days
same,Mean Survival Days (Observed for 25 days),[3]; Intravenous,24 ± 2.1 days
same,Mean Survival Days (Observed for 25 days),[3]; Per oral,11 ± 0.9 days
same,Mean Survival Days (Observed for 25 days),[3]; Subcutaneous,15 ± 1.2 days
same,"Anti-nociceptive response, tail flick latency assay",[5],better anti-nociceptive response than the Ibuprofen
same,Ki,[6],86.1 nM
same,Binding behaviour from progress curves,[6]; inhibitor 0-750 nM,slow tight binding behaviour
same,Isomerization rate constant (k5 * 10^−2) (s^−1),"[6]; purified PfENR, progress curves",1.65 ± .023 10^−2 s^−1
same,koff,[6]; read-out: Dissociation rate constant (k6* 10^−3) (s^−1),0.0069 ± 3e-07 s⁻¹
same,Stage of parasite growth arrest,[4],arrested at the trophozoite stage
same,Parasites observed to be dead,[4],~90%
same,IC50,[4]; [11],1.18 ± 0.2 µM
"O=C(NCCc1ccccc1)c1sc2ccccc2c1Br [Compound 8, 3-bromo-N-(2-phenylethyl)-benzo[b]thiophene-2-carboxamide]","Mechanical hyperalgesia, paw withdrawal threshold",[7],significantly reversed the mechanical hyperalgesia
same,IC50,[1]; [9],54.98 ± 0.42 µM
same,"Analgesic activity compared with Ibuprofen, hot plate",[2],potent analgesic activity at much lower concentration than Ibuprofen
same,"Anti-nociceptive response, tail flick latency assay",[5],better anti-nociceptive response than the Ibuprofen
same,IC50,[4]; [10],2.46 ± 0.7 µM
"Oc1cc(Cl)ccc1Oc1ccc(Cl)cc1Cl [Triclosan, reference compound]",IC50,[8],6800 nM
same,IC50,[4]; [11],0.8 ± 0.1 µM
"C=CCN(Cc1ccc(C(F)(F)F)cc1)C(=O)c1sc2ccccc2c1Br [Compound 11, 3-bromo-N-(prop-2-en-1-yl)-N-[4-(trifluoromethyl)benzyl]-1-benzo[b]thiophene-2-carboxamide]",IC50,[1]; [9],52.48 ± 0.22 µM
same,"MPE index, hot plate latency assay",[2],less latency in comparison to other derivatives
same,Mean Survival Days (Observed for 25 days),"[3]; Intraperitoneal, 5 mg/kg",10 ± 1.2 days
same,Mean Survival Days (Observed for 25 days),"[3]; Intraperitoneal, listed as compound 11, 5 mg/kg",10 days
same,Mean Survival Days (Observed for 25 days),"[3]; Intravenous, 5 mg/kg",16 ± 1.5 days
same,Mean Survival Days (Observed for 25 days),"[3]; Intravenous, listed as compound 11, 5 mg/kg",16 days
same,Mean Survival Days (Observed for 25 days),[3]; Per oral,7 ± .6 days
same,Mean Survival Days (Observed for 25 days),"[3]; Subcutaneous, 5 mg/kg",14 ± 1.2 days
same,Mean Survival Days (Observed for 25 days),"[3]; Subcutaneous, listed as compound 11, 5 mg/kg",14 days
same,Stage of parasite growth arrest,[4],arrested after 48 hours at the trophozoite stage
same,Parasites observed to be dead,[4],around 70%
same,IC50,[4]; [10],1.3 ± 0.1 µM
O=C(O)c1sc2ccccc2c1Br [Compound 1],IC50,[1]; [9],1.68 ± 0.045 µM
same,IC50,[4]; [10],2.1 ± 0.4 µM
"CCN(CC)CCCC(C)Nc1ccnc2cc(Cl)ccc12 (centres unmarked) [Chloroquine, reference compound]",Relative efficacy in the route of administration study,[3],more effective via intravenous and subcutaneous routes compared to oral administration
same,Mean Survival Days (Observed for 25 days),[3]; Intraperitoneal,20 ± 1.5 days
same,Mean Survival Days (Observed for 25 days),[3]; Intravenous,25 ± 2.1 days
same,Mean Survival Days (Observed for 25 days),[3]; Per oral,17 ± 1.4 days
same,Mean Survival Days (Observed for 25 days),[3]; Subcutaneous,21 ± 1.7 days
"O=C(NCc1ccccc1)c1sc2ccccc2c1Br [Compound 4, N-benzyl-3-bromobenzo[b]thiophene-2-carboxamide]","Mechanical hyperalgesia, paw withdrawal threshold",[7],significantly reversed the mechanical hyperalgesia
same,IC50,[1]; [9],0.51 µM and 0.501 µM
same,melting point,,115 to 117 °C
same,"Analgesic activity compared with Ibuprofen, hot plate",[2],potent analgesic activity at much lower concentration than Ibuprofen
same,"Anti-nociceptive response, tail flick latency assay",[5],better anti-nociceptive response than the Ibuprofen
same,IC50,[4]; [10],2 ± 0.5 µM
